pEC50, pIC50: −log10 of the molar value.
Legend:
GSK3α = GSK3α (Homo sapiens (Human), UniProt P49840); test: Kinase binding, active site-directed competition binding (DiscoverX)
A/J mice = test: Cigarette smoke model; format: in vivo; conditions: for CXCL1 in BALF, % inhibition / Cell numbers in BALF, Macrophage / Cell numbers in BALF, Macrophage, % inhibition / Cell numbers in BALF, Neutrophil / Cell numbers in BALF, Neutrophil, % inhibition: tobacco smoke
Procedure: A/J mice (males, 5 weeks old) were exposed to cigarette smoke (4% cigarette smoke, diluted with air) for 30 min/day for 11 days using a Tobacco Smoke Inhalation Experiment System for small animals (Model SIS-CS; Sibata Scientific Technology, Tokyo, Japan). Test substances were administered intra-nasally (35 μL of solution in 50% DMSO/PBS) once daily for 3 days after the final cigarette smoke exposure. At 12 hr after the last dosing, each of the animals was anesthetized, the trachea cannulated and bronchoalveolar lavage fluid (BALF) was collected. The numbers of alveolar macrophages and neutrophils were determined by FACS analysis (EPICS® ALTRA II, Beckman Coulter, Inc., Fullerton, Calif., USA) using anti-mouse MOMA2 antibody (macrophage) or anti-mouse 7/4 antibody (neutrophil). BALF was centrifuged and the supernatant was collected. The level of keratinocyte chemoattractant (KC; CXCL1) in BALF was quantitated using a Quentikine® mouse KC ELISA kit (R&D systems, Inc., Minneapolis, Minn., USA).

Balb/c mice = test: LPS-induced neutrophil accumulation in mice; format: in vivo
Procedure: […] At T=0, mice were placed into an exposure chamber and exposed to LPS (7.0 mL, 0.5 mg/mL solution in PBS) for 30 min). After a further 8 hr the animals were anesthetized, their tracheas cannulated and BALF extracted by infusing and then withdrawing from their lungs 1.0 mL of PBS via the tracheal catheter. Total and differential white cell counts in the BALF samples were measured using a Neubaur haemocytometer. Cytospin smears of the BALF samples were prepared by centrifugation at 200 rpm for 5 min at RT and stained using a DiffQuik stain system (Dade Behring). Cells were counted using oil immersion microscopy. Data for neutrophil numbers in BAL are shown as mean±S.E.M. (standard error of the mean). The percentage inhibition of neutrophil accumulation was calculated for each treatment relative to vehicle treatment.

PBMC cells = test: Cell mitosis assay; format: cell-based, human
Procedure: Peripheral blood mononucleocytes (PBMCs) from healthy subjects were separated from whole blood (Quintiles, London, UK) using a density gradient (Histopaque®-1077, Sigma-Aldrich, Poole, UK). The PBMCs (3 million cells per sample) were subsequently treated with 2% PHA (Sigma-Aldrich, Poole, UK) for 48 hr, followed by a 20 hr exposure to varying concentrations of test compounds. At 2 hr before collection, PBMCs were treated with demecolcine (0.1 μg/mL; Invitrogen, Paisley, UK,) to arrest cells in metaphase. To observe mitotic cells, PBMCs were permeabilised and fixed by adding Intraprep (50 μL; Beckman Coulter, France), and stained with anti-phospho-histone 3 ([…]; #9701; Cell Signalling, Danvers, Mass.) and propidium iodide (1 mg/mL; Sigma-Aldrich, Poole, UK,) as previously described (Muehlbauer P. A. and Schuler M. J., Mutation Research, 2003, 537:117-130). Fluorescence was observed using an ATTUNE flow cytometer (Invitrogen, Paisley, UK), gating for lymphocytes.

d-U937 cells = test: Cell viability: MTT assay; format: cell-based, human; conditions: 1 μg/mL
How it was run: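 Differentiated U937 cells exposed to compound at 1 or 10 μg/mL final, either 4 h in 5% FCS RPMI1640 or 24 h in 10% FCS RPMI1640. After medium replacement, MTT added 1 h, formazan dissolved in DMSO, A550 read. % viability loss vs 0.5% DMSO vehicle; apparent viability gain shown as negative %.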

HRV16 = HRV16 induced CPE in MRC5 cells; format: cell-based, human rhinovirus; conditions: at 0.04 μg/mL
Procedure: The supernatants were aspirated, and then fresh media added followed by incubation for 4 days. Where appropriate, cells were pre-incubated with compound or DMSO for 2 hr, and the compounds and DMSO added again after washout of the virus.
The percentage inhibition for each well was calculated. The IC50 value was calculated from the concentration-response curve generated by the serial dilutions of the test compounds.

[1] = test system: TNFα release in d-U937 cells; test: LPS-induced TNFα release in d-U937 cells; format: cell-based, human; conditions: dU937 cells; relative to 10 μg/mL BIRB796; read-out: LPS Induced Release TNFα REC50 (dU937)
Procedure: U937 cells, a human monocytic cell line, were differentiated into macrophage-type cells by incubation with PMA (100 ng/mL) for 48 to 72 hr. Cells were pre-incubated with final concentrations of test compound for 2 hr and were then stimulated with LPS (0.1 μg/mL; from E. Coli: 0111:B4, Sigma) for 4 hr. The supernatant was collected for determination of TNFα and IL-8 concentrations by sandwich ELISA (Duo-set, R&D systems). […] The relative 50% effective concentration (REC50) was determined from the resultant concentration-response curve. The inhibition of IL-8 production was calculated at each concentration of test compound by comparison with vehicle control.

[2] = test system: IL-8 release in d-U937 cells; test: LPS-induced IL-8 release in d-U937 cells; format: cell-based, human; conditions: dU937 cells
Procedure: U937 cells, a human monocytic cell line, were differentiated into macrophage-type cells by incubation with PMA (100 ng/mL) for 48 to 72 hr. […] The supernatant was collected for determination of TNFα and IL-8 concentrations by sandwich ELISA (Duo-set, R&D systems). […] The relative 50% effective concentration (REC50) was determined from the resultant concentration-response curve. The inhibition of IL-8 production was calculated at each concentration of test compound by comparison with vehicle control.

[3] = test system: TNFα release in THP-1 cells; test: LPS-induced TNFα release in THP-1 cells; format: cell-based, human; conditions: THP1 cells
Procedure: THP-1 cells, a human monocytic cell line, were stimulated with 3 μg/mL of LPS (from E. Coli; 0111:B4, Sigma) for 4 hr and the supernatant collected for determination of the TNFα concentration by sandwich ELISA (Duo-set, R&D systems). The inhibition of TNFα production was calculated at each concentration by comparison with vehicle control.

[4] = test system: HRV IL-8 release (BEAS2B); test: Rhinovirus-induced IL-8 release in BEAS2B cells; format: cell-based, human; conditions: at 0.04 μg/mL
Procedure: Human rhinovirus RV16 was obtained from the American Type Culture Collection (Manassas, Va.). Viral stocks were generated by infecting Hela cells with HRV until 80% of the cells were cytopathic.
BEAS2B cells were infected with HRV at an MOI of 5 and incubated for 2 hr at 33° C. with gentle shaking for to promote absorption. The cells were then washed with PBS, fresh media added and the cells were incubated for a further 72 hr. The supernatant was collected for assay of IL-8 concentrations using a Duoset ELISA development kit (R&D systems, Minneapolis, Minn.).
The level of cell surface ICAM-1 expression was determined by cell-based ELISA. At 72 hr after infection, cells were fixed with 4% formaldehyde in PBS. After quenching endogenous peroxidase by adding 0.1% sodium azide and 1% hydrogen peroxide, wells were washed with wash-buffer (0.05% Tween in PBS: PBS-Tween). […] The ICAM-1 signal was detected by adding substrate and reading at 450 nm with a reference wavelength of 655 nm using a spectrophotometer. The wells were then washed with PBS-Tween and total cell numbers in each well were determined by reading absorbance at 595 nm after Crystal Violet staining and elution by 1% SDS solution. The measured OD450-655 readings were corrected for cell number by dividing with the OD595 reading in each well. […]

[5] = test system: ICAM-1 expression in BEAS2B cells; test: Poly I:C-induced ICAM-1 expression in BEAS2B cells; format: cell-based, human; conditions: read-out: PolyIC/ICAM1 IC50 (BEAS2B)
How it was run: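 BEAS2B human bronchial epithelial cells pre-incubated 2 h with compound, then transfected with 1 μg/mL poly I:C plus Oligofectamine. After 18 h, surface ICAM-1 measured by cell-based ELISA (OD450–655), normalised to crystal violet cell count (OD595). Inhibition calculated against vehicle control.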

GSK3α, sequence (P49840 whole entry): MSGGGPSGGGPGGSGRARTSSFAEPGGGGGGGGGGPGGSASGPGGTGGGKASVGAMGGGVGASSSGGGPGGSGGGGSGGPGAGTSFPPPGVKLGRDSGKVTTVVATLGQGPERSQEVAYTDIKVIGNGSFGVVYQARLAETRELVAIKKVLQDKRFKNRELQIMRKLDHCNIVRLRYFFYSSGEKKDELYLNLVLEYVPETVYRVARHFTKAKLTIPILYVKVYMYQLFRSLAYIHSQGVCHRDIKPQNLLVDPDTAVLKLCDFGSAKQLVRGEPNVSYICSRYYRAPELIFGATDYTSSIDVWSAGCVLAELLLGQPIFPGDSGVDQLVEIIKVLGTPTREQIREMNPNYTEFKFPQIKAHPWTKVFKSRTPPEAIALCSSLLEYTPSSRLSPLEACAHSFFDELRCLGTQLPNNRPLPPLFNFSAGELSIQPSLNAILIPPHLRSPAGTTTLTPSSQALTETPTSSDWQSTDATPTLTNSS

## Cc1ccc(-n2nc(C(C)(C)C)cc2NC(=O)Nc2ccc(Oc3ccnc(Nc4ccccc4)n3)c3ccccc23)cc1 [Example 1, 1-(3-(tert-Butyl)-1-(p-tolyl)-1H-pyrazol-5-yl)-3-(4-(2-(phenylamino)pyrimidin-4-yloxy)naphthalen-1-yl)urea]
GSK3α
  inhibition of binding against GSK3α (in words): without significant effect
A/J mice; 0.32 μg/mL intra-nasal
  CXCL1 in BALF, % inhibition: 0%
  Cell numbers in BALF, Macrophage: 13.3 ± 0.20 ×10^4/mL
  Cell numbers in BALF, Macrophage, % inhibition: 11%
  Cell numbers in BALF, Neutrophil: 12.4 ± 0.32 ×10^4/mL
  Cell numbers in BALF, Neutrophil, % inhibition: 12%
A/J mice; 1.6 μg/mL intra-nasal
  CXCL1 in BALF, % inhibition: 26%
  Cell numbers in BALF, Macrophage: 11.6 ± 0.42 ×10^4/mL
  Cell numbers in BALF, Macrophage, % inhibition: 28%
  Cell numbers in BALF, Neutrophil: 10.5 ± 0.06 ×10^4/mL
  Cell numbers in BALF, Neutrophil, % inhibition: 29%
A/J mice; 8.0 μg/mL intra-nasal
  CXCL1 in BALF, % inhibition: 41%
  Cell numbers in BALF, Macrophage: 10.1 ± 0.42 ×10^4/mL
  Cell numbers in BALF, Macrophage, % inhibition: 43%
  Cell numbers in BALF, Neutrophil: 9.1 ± 0.28 ×10^4/mL
  Cell numbers in BALF, Neutrophil, % inhibition: 41%
A/J mice; 40 μg/mL intra-nasal
  CXCL1 in BALF, % inhibition: 76%
  Cell numbers in BALF, Macrophage: 7.9 ± 0.20 ×10^4/mL
  Cell numbers in BALF, Macrophage, % inhibition: 64%
  Cell numbers in BALF, Neutrophil: 7.9 ± 0.34 ×10^4/mL
  Cell numbers in BALF, Neutrophil, % inhibition: 52%
A/J mice; mice
  cigarette smoke induced CXCL1 (KC) production in BALF (in words): inhibited
  macrophage accumulation in BALF induced by cigarette smoke (in words): dose-dependent inhibition
  neutrophil accumulation in BALF induced by cigarette smoke (in words): dose-dependent inhibition
Balb/c mice; 0.05 mg/mL intra tracheal, pre-dose time 2 hr
  Neutrophil numbers in BALF, % inhibition: 18%
Balb/c mice; 0.2 mg/mL intra tracheal, pre-dose time 2 hr
  Neutrophil numbers in BALF, % inhibition: 48%
Balb/c mice; 1.0 mg/mL intra tracheal, pre-dose time 2 hr
  Neutrophil numbers in BALF, % inhibition: 77%
Balb/c mice; 1.0 mg/mL intra tracheal, pre-dose time 8 hr
  Neutrophil numbers in BALF, % inhibition: 48%
Balb/c mice; 1.0 mg/mL intra tracheal, pre-dose time 12 hr
  Neutrophil numbers in BALF, % inhibition: 4%
Balb/c mice; mice
  effect on LPS-induced neutrophil accumulation (in words): dose dependent inhibition
Balb/c mice; time course experiment, mice
  duration of action: long duration of action
PBMC cells; 1 μg/mL
  Mitosis Assay % inhibition in PBMC Cells: 13.7%
PBMC cells; 5 μg/mL
  Mitosis Assay % inhibition in PBMC Cells: 31.3%
d-U937 cells; 4 h
  MTT Assay Cell viability at time point in d-U937 Cells: −ve (−ve and +ve indicate the value is below and above respectively, the no significant effect threshold defined as 30% inhibition at 1 μg/mL at the time point indicated)
d-U937 cells; 24 h
  MTT Assay Cell viability at time point in d-U937 Cells: −ve (−ve and +ve indicate the value is below and above respectively, the no significant effect threshold defined as 30% inhibition at 1 μg/mL at the time point indicated)

## Cc1ccc(-n2nc(C(C)(C)C)cc2NC(=O)Nc2ccc(Oc3ccnc(Nc4ccccc4Cl)n3)c3ccccc23)cc1 [Example 19, 1-(3-(tert-butyl)-1-(p-tolyl)-1H-pyrazol-5-yl)-3-(4-((2-((2-chlorophenyl)amino)pyrimidin-4-yl)oxy)naphthalen-1-yl)urea]
HRV16
  HRV CPE (MRC5) % inhibition: NE (NE: no effect, ≦0% at 0.04 μg/mL)
[1]
  pEC50: 7.89
[2]
  pIC50: 7.85
[3]
  pIC50: 6.72
[4]
  HRV IL-8 (BEAS2B) % inhibition: 100%
d-U937 cells; 4 h
  MTT Assay Cell viability at time point in d-U937 Cells: −ve (−ve and +ve indicate the value is below and above respectively, the no significant effect threshold defined as 30% inhibition at 1 μg/mL at the time point indicated)
d-U937 cells; 24 h
  MTT Assay Cell viability at time point in d-U937 Cells: −ve (−ve and +ve indicate the value is below and above respectively, the no significant effect threshold defined as 30% inhibition at 1 μg/mL at the time point indicated)
[5]
  pIC50: 7.37

Reference: patent US9724347B2, “1-pyrazolyl-3-(4-((2-anilinopyrimidin-4-yl)oxy)napththalen-1-yl) ureas as P38 MAP knase inhibitors” (Respivert Ltd., priority 2011, dated 2017)
